Data from patent publication US20250382297A1, “INHIBITORS OF FGFR2 AND FGFR3 AND USES THEREOF” (Insilico Medicine IP Limited, priority 2022, published 2025).
Like-named read-outs stand apart in the source and are kept apart here.

Columns and labels:
FGFR1 = FGFR1 (Homo sapiens (Human), UniProt P11362); assay: FGFR biochemical assay (LanthaScreen TR-FRET kinase assay), FGFR1
Experimental: (§1) Convert Ratio values to percent inhibition values (Percent inhibition=(max−sample Ratio)/(max−min)*100) where “min” means the Ratio of no enzyme control and “max” means the Ratio of DMSO control. • Data are analyzed and curve fitting is performed by XLFit Excel add-in version 5.4.0.8. The IC50 calculation equation is: Y=Bottom+(Top-Bottom)/(1+ (IC50/X)^HillSlope.

FGFR2 = FGFR2 (Homo sapiens (Human), UniProt P21802); assay: FGFR biochemical assay (LanthaScreen TR-FRET kinase assay), FGFR2
Experimental: as §1

FGFR3 = FGFR3 (Homo sapiens (Human), UniProt P22607); assay: FGFR biochemical assay (LanthaScreen TR-FRET kinase assay), FGFR3
Experimental: as §1

[1] = read-out: FGFR2 IC50, incubation with enzyme at room temperature for 10 minutes before substrate, ATP 22 μM, FGFR2 0.01 nM
[2] = read-out: FGFR3 IC50, incubation with enzyme at room temperature for 10 minutes before substrate, ATP 35 μM, FGFR3 0.1 nM
[3] = read-out: FGFR1 IC50, * incubation at room temperature for 60 minutes before addition of substrate solution, ATP 28 μM, FGFR1 0.01 nM
[4] = read-out: FGFR2 IC50, * incubation at room temperature for 60 minutes before addition of substrate solution, ATP 22 μM, FGFR2 0.01 nM

FGFR2, sequence (P21802 22-821): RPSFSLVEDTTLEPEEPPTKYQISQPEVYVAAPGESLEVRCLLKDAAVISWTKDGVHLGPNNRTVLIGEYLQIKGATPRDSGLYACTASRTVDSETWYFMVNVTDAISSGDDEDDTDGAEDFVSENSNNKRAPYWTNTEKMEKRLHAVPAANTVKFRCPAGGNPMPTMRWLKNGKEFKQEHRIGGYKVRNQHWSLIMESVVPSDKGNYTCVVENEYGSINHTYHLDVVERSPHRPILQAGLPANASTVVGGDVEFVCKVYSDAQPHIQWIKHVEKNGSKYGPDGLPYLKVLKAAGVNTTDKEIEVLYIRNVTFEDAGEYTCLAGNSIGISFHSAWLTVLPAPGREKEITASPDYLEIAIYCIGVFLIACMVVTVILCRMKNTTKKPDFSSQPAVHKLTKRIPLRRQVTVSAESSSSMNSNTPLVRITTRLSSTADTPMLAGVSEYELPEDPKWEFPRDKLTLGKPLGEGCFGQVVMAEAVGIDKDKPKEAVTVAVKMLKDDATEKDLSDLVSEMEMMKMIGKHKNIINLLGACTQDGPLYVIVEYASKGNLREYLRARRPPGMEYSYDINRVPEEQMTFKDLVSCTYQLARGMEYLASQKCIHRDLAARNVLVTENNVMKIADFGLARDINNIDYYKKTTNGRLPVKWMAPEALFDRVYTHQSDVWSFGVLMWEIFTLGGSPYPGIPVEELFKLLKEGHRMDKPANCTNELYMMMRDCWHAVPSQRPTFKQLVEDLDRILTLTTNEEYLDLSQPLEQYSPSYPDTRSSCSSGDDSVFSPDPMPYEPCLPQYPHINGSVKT
FGFR3, sequence (P22607 23-806): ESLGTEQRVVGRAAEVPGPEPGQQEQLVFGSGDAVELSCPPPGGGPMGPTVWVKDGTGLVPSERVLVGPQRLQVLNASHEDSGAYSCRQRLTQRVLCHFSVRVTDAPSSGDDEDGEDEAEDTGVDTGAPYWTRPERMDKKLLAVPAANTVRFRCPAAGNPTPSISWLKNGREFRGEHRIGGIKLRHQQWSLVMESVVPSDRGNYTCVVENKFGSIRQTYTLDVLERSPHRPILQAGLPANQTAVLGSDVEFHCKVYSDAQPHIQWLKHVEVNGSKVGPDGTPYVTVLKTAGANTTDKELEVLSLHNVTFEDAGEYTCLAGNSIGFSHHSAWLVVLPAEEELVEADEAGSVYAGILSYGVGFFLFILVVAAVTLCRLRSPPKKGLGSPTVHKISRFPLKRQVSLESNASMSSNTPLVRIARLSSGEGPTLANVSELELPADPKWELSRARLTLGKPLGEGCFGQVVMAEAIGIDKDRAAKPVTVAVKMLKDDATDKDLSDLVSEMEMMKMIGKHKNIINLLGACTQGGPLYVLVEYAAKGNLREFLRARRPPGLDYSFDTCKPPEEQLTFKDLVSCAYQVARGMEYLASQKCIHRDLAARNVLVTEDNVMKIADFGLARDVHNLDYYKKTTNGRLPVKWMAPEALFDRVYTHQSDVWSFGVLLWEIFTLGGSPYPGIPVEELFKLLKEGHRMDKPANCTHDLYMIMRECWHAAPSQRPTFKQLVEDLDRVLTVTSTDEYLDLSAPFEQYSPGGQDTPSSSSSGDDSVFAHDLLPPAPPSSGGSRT
FGFR1, sequence (P11362 22-822): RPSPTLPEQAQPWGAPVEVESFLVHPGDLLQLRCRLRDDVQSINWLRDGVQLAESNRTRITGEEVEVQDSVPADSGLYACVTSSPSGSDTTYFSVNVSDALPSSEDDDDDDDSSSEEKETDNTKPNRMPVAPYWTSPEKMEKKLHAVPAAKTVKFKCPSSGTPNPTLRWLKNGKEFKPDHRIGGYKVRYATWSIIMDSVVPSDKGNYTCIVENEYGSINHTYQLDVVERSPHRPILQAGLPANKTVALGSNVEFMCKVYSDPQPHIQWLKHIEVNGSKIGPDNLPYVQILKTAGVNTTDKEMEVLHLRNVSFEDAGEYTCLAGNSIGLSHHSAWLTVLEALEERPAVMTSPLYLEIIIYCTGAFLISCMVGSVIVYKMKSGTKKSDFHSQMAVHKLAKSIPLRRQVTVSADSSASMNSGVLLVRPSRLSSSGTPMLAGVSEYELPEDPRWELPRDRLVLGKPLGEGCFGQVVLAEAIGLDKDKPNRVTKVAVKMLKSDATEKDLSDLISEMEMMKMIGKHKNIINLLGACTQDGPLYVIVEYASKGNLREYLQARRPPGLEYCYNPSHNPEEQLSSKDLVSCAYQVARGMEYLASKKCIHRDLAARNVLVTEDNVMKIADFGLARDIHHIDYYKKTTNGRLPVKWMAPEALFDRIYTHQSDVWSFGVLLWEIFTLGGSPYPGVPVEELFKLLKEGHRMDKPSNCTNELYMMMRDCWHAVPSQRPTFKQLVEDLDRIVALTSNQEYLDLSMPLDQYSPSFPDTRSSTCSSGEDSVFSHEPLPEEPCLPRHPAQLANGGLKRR

| Compound | IC50 (FGFR2; [1]) [µM] | IC50 (FGFR2) [µM] | IC50 (FGFR3) [µM] | IC50 (FGFR1) [µM] | other results |
| --- | --- | --- | --- | --- | --- |
| C=CC(=O)Nc1ccc(-c2c(-c3ccc(Oc4cccc(C)n4)cc3)c(C#N)c3sccn23)cc1 [Example 24, N-(4-(7-cyano-6-(4-((6-methylpyridin-2-yl)oxy)phenyl)pyrrolo[2,1-b]thiazol-5-yl)phenyl) acrylamide] | > 1 | – | – | – | IC50 (FGFR1; read-out: FGFR1 IC50, incubation with enzyme at room temperature for 10 minutes before substrate, ATP 28 μM, FGFR1 0.01 nM): > 1 µM; IC50 (FGFR3; [2]): > 1 µM |
| C=C(F)C(=O)Nc1ccc(-c2c(-c3ccc(Oc4nccc(C)n4)c(F)c3)c(C(N)=O)c3cncnn23)cc1 [Example 108, 6-(3-fluoro-4-((4-methylpyrimidin-2-yl)oxy)phenyl)-7-(4-(2-fluoroacrylamido)phenyl)pyrrolo[2,1-f][1,2,4]triazine-5-carboxamide] | – | 0.01 to 0.1 | 0.1 to 1 | – | IC50 (FGFR1; [3]): > 1 µM |
| C=C(F)C(=O)Nc1ccc(-c2c(-c3ccc(Oc4nccc(C)n4)c(F)c3)c(C(N)=O)c3ccccn23)cc1 [Example 107, 2-(3-fluoro-4-((4-methylpyrimidin-2-yl)oxy)phenyl)-3-(4-(2-fluoroacrylamido)phenyl) indolizine-1-carboxamide] | – | – | 0.01 to 0.1 | 0.1 to 1 | – |
| C=CC(=O)Nc1ccc(-c2c(-c3ccc(Oc4cccc(C)n4)cc3)c(C(N)=O)c3cnc(OC)cn23)cc1 [Example 17, 6-(4-acrylamidophenyl)-3-methoxy-7-(4-((6-methylpyridin-2-yl)oxy)phenyl)pyrrolo[1,2-a]pyrazine-8-carboxamide] | < 0.01 | – | 0.01 to 0.1 | 0.01 to 0.1 | – |
| C=C(F)C(=O)Nc1ccc(-c2c(-c3ccc(Oc4nc(C)cc(C)n4)c(F)c3)c(C(N)=O)c3cnc(C)cn23)cc1 [Example 53, 7-(4-((4,6-dimethylpyrimidin-2-yl)oxy)-3-fluorophenyl)-6-(4-(2-fluoroacrylamido)phenyl)-3-methylpyrrolo[1,2-a]pyrazine-8-carboxamide] | – | 0.01 to 0.1 | 0.1 to 1 | – | IC50 (FGFR1; [3]): > 1 µM |
| C=C(F)C(=O)Nc1ccc(-c2c(-c3ccc(Oc4nccc(C)n4)c(F)c3)c(C(N)=O)c3cc(C)ncn23)cc1 [Example 85, 6-(3-fluoro-4-((4-methylpyrimidin-2-yl)oxy)phenyl)-7-(4-(2-fluoroacrylamido)phenyl)-3-methylpyrrolo[1,2-c]pyrimidine-5-carboxamide] | – | – | 0.01 to 0.1 | 0.1 to 1 | IC50 (FGFR2; [4]): < 0.01 µM |
| C=CC(=O)Nc1ccc(-c2c(-c3ccc(Oc4nccc(C)n4)c(F)c3)c(C(N)=O)c3cnc(CO)cn23)cc1 [Example 78, 6-(4-acrylamidophenyl)-7-(3-fluoro-4-((4-methylpyrimidin-2-yl)oxy)phenyl)-3-(hydroxymethyl)pyrrolo[1,2-a]pyrazine-8-carboxamide] | < 0.01 | – | – | 0.1 to 1 | IC50 (FGFR3; [2]): < 0.01 µM |
| C=CC(=O)Nc1ccc(-c2c(-c3ccc(Oc4cccc(C)n4)cc3)c(C(N)=O)c3cccnn23)cc1 [Example 20, 7-(4-acrylamidophenyl)-6-(4-((6-methylpyridin-2-yl)oxy)phenyl)pyrrolo[1,2-b]pyridazine-5-carboxamide] | < 0.01 | – | 0.01 to 0.1 | 0.01 to 0.1 | – |
| C=C(F)C(=O)Nc1ccc(-c2c(-c3ccc(Oc4nccc(C)n4)cc3)c(C(N)=O)c3cnc(CCO)cn23)c(F)c1 [Example 81, 6-(2-fluoro-4-(2-fluoroacrylamido)phenyl)-3-(2-hydroxyethyl)-7-(4-((4-methylpyrimidin-2-yl)oxy)phenyl)pyrrolo[1,2-a]pyrazine-8-carboxamide] | – | – | – | 0.01 to 0.1 | IC50 (FGFR2; [4]): < 0.01 µM; IC50 (FGFR3; read-out: FGFR3 IC50, * incubation at room temperature for 60 minutes before addition of substrate solution, ATP 35 μM, FGFR3 0.1 nM): < 0.01 µM |
| C=C(F)C(=O)Nc1ccc(-c2c(-c3ccc(Oc4nccc(C)n4)cc3)c(C(N)=O)c3cnc(C(F)(F)F)cn23)cc1 [Example 56, 6-(4-(2-fluoroacrylamido)phenyl)-7-(4-((4-methylpyrimidin-2-yl)oxy)phenyl)-3-(trifluoromethyl)pyrrolo[1,2-a]pyrazine-8-carboxamide] | – | 0.01 to 0.1 | 0.1 to 1 | 0.1 to 1 | – |
